Patent US20240158430A1, “NOVEL COMPOUND OR SALT THEREOF, AND ANTITUMOR ACTIVATOR CONTAINING SAME AS ACTIVE INGREDIENT” (AKITA UNIVERSITY, priority 2021, published 2024)

Tests used:
[1] = system: malignant melanoma cell line G361; assay: Cell growth inhibitory activity, G361; assay type: cell-based; settings: Table 9
Experimental: [The source words this procedure for another cell line and reports this cell line under the same test.] The cell growth inhibitory activity against a colorectal cancer cell line HCT116 was measured. As an index of cell growth inhibitory activity, a concentration at which cell growth was inhibited by 50% as compared with a control (IC50) was used. The method is as follows. HCT116 was added to a 6-well plate by 5×10^4, compounds having various concentrations were added after 24 hours, and the number of cells was counted after 72 hours of culture. As the control, DMSO was used in an amount equal to the amount added in accordance with the addition concentration of the highest-concentration compound. The number of cells at each concentration relative to the control was expressed as a percentage.
The method is as described above.

[2] = system: apoptosis-related protein; assay: Apoptosis-related protein, M30 Apotosense ELISA; assay type: cell-based; settings: control 360 U/L
Experimental: The influence of GO-Y199 on NF-kB (p65) was investigated. The method is as follows. 3×10^6 cells of the HCT116 cell line were added to a 10-cm plate, 2 μM of GO-Y199 was added after 24 hours, the cells were collected after 24 hours, embedded in iPGell (GenOStaff), and fixed in formalin, paraffin blocks were then prepared, and immuno-histochemistry was performed with an anti-NF-kB (p65) antibody. In addition, 2 μM and 5 μM of GO-Y199 were added, lysates were collected after 24 hours, and an expression level of NF-kB (p65) was analyzed using an ELISA-plate (NF-kBp65 (pS536) SimpleStep-ELISA-kit, Abcam). An amount of protein was corrected by the absorbance of A 280 nm. The upper part of FIG. 14 indicates photographs of the control group and the GO-Y199 (2 μM)-added group after 24 hours. The lower part of FIG. 14 indicates results of the t-test of these groups after 24 hours. FIG. 15 indicates the comparison results of the NF-kB inhibitory effect of GO-Y199 (2 μM, 5 μM)-added groups with respect to the control group.
The influence of GO-Y199 on Caspase 3 was investigated. The method is as described above. Immunohistochemistry was performed with an anti-Caspase 3 antibody. Quantification of apoptosis-related protein was performed using M30 Apotosense ELISA (PEVIVA). The upper part of FIG. 20 indicates photographs of the control group and the GO-Y199 (2 μM)-added group after 24 hours. […]

SMILES: COCOc1cc(/C=C/C(=O)CC(SCCOCCOCCOCCOCc2cn([C@@H]3O[C@H](CO)[C@@H](O[C@@H]4O[C@H](CO)[C@H](O)[C@H](O)[C@H]4O)[C@H](O)[C@H]3O)nn2)c2cc(OCOC)cc(OCOC)c2)cc(OCOC)c1 (stereo partly drawn) [GO-Y199]
- IC50 [1]: 1.4 µM
- apoptosis-related protein activity (M30) ([2]; 2 μM): 1,830 U/L
- apoptosis-related protein activity (M30) ([2]; 5 μM): 2,050 U/L
